Data on three compounds can be found in patent publication US20220048915A1 (SHANGHAI PHARMACEUTICALS HOLDING CO., LTD., priority 2018, published 2022).

By clearance is commonly meant a measure of how efficiently the substance is removed, as volume per time. Usually Cmax stands for the peak of the concentration-time curve. Usually MRT stands for the average time that molecules of a dose stay in the body. Usually Tmax stands for the time from dosing to the highest level. By IC50 is commonly meant the point on the concentration scale where inhibition reaches its midpoint.

“And” between values parts separate entries of the source, which are not always exact repeats. Equal values may be shown once.

A short description of data set [1]: Pharmacokinetic properties in mice. It is filed as in vivo, ICR mice. As to conditions: for Cmax / MRT / Tmax / AUClast (po): po 10 mg/kg; for BA: po 10 mg/kg vs iv 3 mg/kg; for AUClast (po): 5-1440 minutes. As for the experimental part: Forty-eight male ICR mice, weighing 18-22 g (provided by Shanghai Xipuerbikai Laboratory Animal Co., Ltd, Certificate No.: 20130016008116). The mice were […] for 12-16 hours before the experiment but water was allowed.
Blood samples were collected from the fundus vein of mice before and at 2, 5, 15, 30, 60, 90, 120, 240, 480, 600, and 1440 minutes of the administration, respectively.
Blood samples were collected from the fundus vein of mice before and at 5, 15, 30, 60, 90, 120, 240, 480 and 1440 minutes of administration, respectively.
2-3 time points were taken for each mouse. The mice were sacrificed at 5, 15, 30, 60 and 1440 minutes after the administration (3 mice per time point), and the brains were taken, rinsed with saline, dried on filter paper and weighed.
(§1) Blood samples were centrifuged at 8000 rpm for 5 minutes, and supernatant plasma was taken. To 50 μL of plasma samples was added 300 μL of acetonitrile containing internal standard (propranolol, 25 ng/mL) to precipitate the protein. After vortexing for 10 minutes and centrifuging at 6000 g and 4° C. for 10 minutes, the supernatant was taken and placed in a 96-well plate for determination of drug concentration in plasma by UPLC/MS-MS.

The subject of data set [2] is TNF-α. Kind of data set: Lipopolysaccharide (LPS)-induced inflammation model in mice, TNF-α in serum by ELISA. It is filed as in vivo, C57BL/6J mice. As for the experimental part:
Male SPF-grade C57BL/6J mice, 6-8 weeks old, provided by Shanghai Ling Chang Biotechnology Co., Ltd. Animals were housed in clean-grade plastic cages (light and dark cycle 12/12 hours, temperature 22±2° C., humidity 50±10%, pellet feed, free drinking water).
1. Mice were weighed and administered according to an administration volume of 10 mL/kg, and oral administration by gavage was given for the first time. Each mouse was administrated at an interval of 3 minutes.
2. One hour after the first administration, LPS 5 mpk was administered intraperitoneally at an administration volume of 10 mL/kg.
3. 4 hours after the first administration, a second oral administration by gavage was given according to the administration volume of 10 mL/kg.
4. 6 hours after LPS intraperitoneal injection, mice were sacrificed, serum and cerebral cortex and hippocampus were sampled. After weighing the wet weight and they were put into liquid nitrogen for quick-freezing and storage.

For data set [3], the system named is BV-2 cells. Kind of data set: Inhibition of inflammation in LPS-stimulated BV-2 cells (ELISA of inflammatory factors). It is filed as cell-based. As to conditions: Mus musculus, 100 ng/mL LPS 4 hours; for Emax: read-out: BV-2 Max Inh. (%); for IC50: read-out: BV-2 Rf IC50. As for the experimental part: Normal cultured 8th passage BV-2 cells were taken, and inoculated separately in 96-well plates at a certain cell density. The cell culture plates were cultured at 37° C. and 5% CO2 for 24 hours.
After inoculating the plate for 24 hours, the cell culture medium was removed, and then 100 μL of a 4-fold gradient dilution compound starting from 10,000 nM prepared in DMEM+10% FBS, where High control and Low control contained 0.1% DMSO without compound. With 100 μL per well, the cell culture plate was cultured at 37° C. with 5% CO2 for one hour.
The compound-containing cultures were removed. 100 ng/mL of LPS was prepared with DMEM+10% FBS culture medium, and then the compound was diluted in a 4-fold gradient from 10,000 nM with LPS-containing culture medium. In low control, the compound was replaced with 0.1% DMSO. In High control, 0.1% DMSO was prepared with culture medium without LPS. 100 μL per well, and the cell culture plates were cultured at 37° C. with 5% CO2 for 4 hours.
After 4 hours of LPS stimulation, 110 μL of the culture solution was aspirated, and centrifuged at 2000 rpm for 2 minutes. A further 90 μl of supernatant was aspirated and immediately put into −20° C. for freezing.
ELISA kits were used to detect the expression of inflammatory factors such as IL-10, TNFα, etc. The OD450 signal values were measured by microplate reader. The in vitro inhibitory activity of the compounds was calculated according to the following formula: Inhibition rate: Inhibition rate (%)=(signal value of control−signal value of administration)/(high signal value of control−low signal value of control)×100%. And according to the inhibition rate of each concentration, Graphpad Prism 5.0 was used to curve fit the […] signal values at each concentration and calculate the corresponding IC50, which is shown in Table 1.

Data set [4] can be described thus: Pharmacokinetic properties in rats. It is filed as in vivo, SD rats. Particulars: for Cmax / MRT / Tmax / AUClast (po): po 6 mg/kg; for BA: po 6 mg/kg vs iv 3 mg/kg; for AUClast (po): 5-1440 minutes. As for the experimental part:
Ten male SD rats, weighing 180-220 g (provided by Shanghai Xipuerbikai Laboratory Animal Co., Ltd, Certificate No.: 20130016008116). The rats were fasted for feed for 12-16 hours before the experiment but water was allowed.
Blood samples were collected from the fundus vein of rats before and at 2, 5, 15, 30, 60, 90, 120, 240, 360, 480, 600 and 1440 minutes after administration, respectively.
Blood samples were collected from the fundus vein of rats before and at 5, 15, 30, 60, 90, 120, 240, 360, 480, 600, 1440 minutes after administration respectively.
as §1

Data set [5] addresses p38 kinase. Particulars: CN108349964A, Table 7 on page 74; read-out: IC50 grade for the inhibitory activity of p38 kinase; cited from earlier work.
The target of data set [6] is T1, p38γ (Homo sapiens, UniProt P53778).
T1 sequence (P53778 1-367): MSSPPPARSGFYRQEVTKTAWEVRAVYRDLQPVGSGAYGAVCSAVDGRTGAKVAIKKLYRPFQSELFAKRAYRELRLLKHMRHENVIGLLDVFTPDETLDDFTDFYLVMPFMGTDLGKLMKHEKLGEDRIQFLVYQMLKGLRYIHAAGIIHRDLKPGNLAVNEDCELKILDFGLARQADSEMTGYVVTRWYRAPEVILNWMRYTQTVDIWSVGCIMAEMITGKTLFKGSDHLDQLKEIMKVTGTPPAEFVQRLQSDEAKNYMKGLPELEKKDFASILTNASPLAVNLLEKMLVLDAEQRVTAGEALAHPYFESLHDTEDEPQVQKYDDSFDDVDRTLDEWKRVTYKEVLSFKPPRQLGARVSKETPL
Kind of data set: In vitro inhibition of p38 kinase (LANCE Ultra TR-FRET). Format: biochemical. As to conditions: read-out: Kinase in vitro IC50(nM) p38γ. Background: In TR-FRET formats the signal depends on donor and acceptor labels being close together.

In data set [7] the target is p38β (Homo sapiens, UniProt Q15759). Described as above. It is filed as biochemical. Particulars: read-out: Kinase in vitro IC50(nM) p38β.
Data set [8] concerns the target p38α (Homo sapiens, UniProt Q16539). Described as above. It is filed as biochemical. Particulars: read-out: Kinase in vitro IC50(nM) p38α.

Sequence of p38α (Q16539 whole entry): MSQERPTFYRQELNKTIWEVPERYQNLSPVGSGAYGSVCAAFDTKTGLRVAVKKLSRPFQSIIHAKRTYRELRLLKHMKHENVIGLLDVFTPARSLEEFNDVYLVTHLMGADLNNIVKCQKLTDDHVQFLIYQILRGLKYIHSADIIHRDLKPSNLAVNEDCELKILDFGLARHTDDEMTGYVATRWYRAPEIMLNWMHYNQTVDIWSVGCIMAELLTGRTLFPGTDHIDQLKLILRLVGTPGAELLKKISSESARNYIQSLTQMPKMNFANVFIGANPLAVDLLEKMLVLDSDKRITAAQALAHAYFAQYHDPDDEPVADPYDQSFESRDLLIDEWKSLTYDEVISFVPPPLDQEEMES
Sequence of p38β (Q15759 whole entry): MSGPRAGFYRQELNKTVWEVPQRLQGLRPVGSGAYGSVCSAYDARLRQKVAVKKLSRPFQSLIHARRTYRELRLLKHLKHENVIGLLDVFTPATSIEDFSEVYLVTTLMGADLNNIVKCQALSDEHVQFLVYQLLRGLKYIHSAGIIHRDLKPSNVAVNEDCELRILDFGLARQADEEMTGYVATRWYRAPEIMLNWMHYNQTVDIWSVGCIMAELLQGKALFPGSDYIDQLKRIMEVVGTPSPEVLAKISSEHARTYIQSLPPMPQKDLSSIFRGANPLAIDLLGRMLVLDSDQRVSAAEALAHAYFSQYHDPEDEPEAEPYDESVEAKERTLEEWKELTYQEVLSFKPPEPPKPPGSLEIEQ

On to `O=c1ncn2nc(Sc3ccc(F)cc3F)ccc2c1-c1c(Cl)cccc1Cl` [VX-745, reference compound], for which the “Thalf (iv)” value is given as 3.9 h in data set [1] (iv 3 mg/kg) and 5.2 h in data set [4] (rat, iv 3 mg/kg). Also, the clearance in data set [1] (male, ICR, mouse, plasma, iv 3 mg/kg) was 18.3 mL/min/kg; in data set [4] (male, SD, plasma, rat, iv 3 mg/kg), 25 mL/min/kg. Further, the Vd in data set [1] (male, ICR, mouse, plasma, iv 3 mg/kg, read-out: Vss (iv)) was 2.3 L/kg; in data set [4] (male, SD, plasma, rat, iv 3 mg/kg, read-out: Vss (iv)), 4.5 L/kg. Also, the Cmax stood at 750 ng/mL in data set [1] (male, ICR, mouse, plasma) and 476 ng/mL in data set [4] (male, SD, plasma, rat). For the same compound, the MRT in data set [1] (male, ICR, mouse, plasma) stood at 3.2 h; in data set [4] (male, SD, plasma, rat), 4.3 h. Moreover, the Tmax in data set [1] (male, ICR, mouse, plasma) was 0.8 h; in data set [4] (male, SD, plasma, rat), 0.8 h. The BA in data set [1] was determined as 20.2%; in data set [4] (rat), 41.2%. The results for the “AUClast (po)” value in data set [1] and in data set [4] (rat) were 1844 (h)*(ng/mL) and 1644.5 (h)*(ng/mL), respectively. In data set [2] (8 mpk, P<0.01), the “levels of TNF-α compared with the mouse inflammation model group (G2)” value was “significantly reduced”. Also, the TNF-α conc. in data set [2] (serum, individual animals, 8 mg/kg po bid interval 4 h, 6 hours after LPS 5 mpk ip) is 142.0 pg/mL and 151.7 pg/mL and 105.5 pg/mL and 155.5 pg/mL and 55.4 pg/mL and 105.7 pg/mL and 54.3 pg/mL and 71.2 pg/mL and 24.0 pg/mL and 155.2 pg/mL. Further, in data set [3], the Emax was 99.7%. In addition, the IC50 in data set [3] was 4.26 nM.

For `O=c1ncn2nc(Sc3ccc(F)cc3)ccc2c1-c1c(Cl)cccc1Cl` [compound 12], the IC50 in data set [5] was 100 to 1000 nM.

Consider `O=c1ncn2nc(Oc3cc(F)c(F)cc3F)ccc2c1-c1c(Cl)cccc1Cl` [Compound I-43], for which the “absorption compared with the positive compound VX-745 at the same dose” value in data set [1] (10 mg/kg) is given as “better”; in data set [4] (rats, 6 mg/kg) it was “better”. Moreover, the “Thalf (iv)” value in data set [1] (iv 3 mg/kg) is 2.97 h; in data set [4] (rat, iv 3 mg/kg), 3.7 h. For the same compound, the highest concentration (Cmax) in data set [1] (male, ICR, mouse, plasma) was 1280 ng/mL; in data set [4] (male, SD, plasma, rat), 601 ng/mL. Also, the MRT in data set [1] (male, ICR, mouse, plasma) was determined as 4.34 h; in data set [4] (male, SD, plasma, rat), 4.7 h. Further, the Tmax in data set [1] (male, ICR, mouse, plasma) came out at 2 h; in data set [4] (male, SD, plasma, rat), 4 h. Besides, the BA in data set [1] is on record as 89.17%; in data set [4] (rat), 123.3%. The “AUClast (po)” value is given as 6540 (h)*(ng/mL) in data set [1] and 2994 (h)*(ng/mL) in data set [4] (rat). In data set [3], the Emax was 50.9%. Also, the IC50 was 21.5 nM in data set [3], over 3330 nM in data set [6], 95.1 nM in data set [7] and 10.7 nM in data set [8].
